47 compounds from patent US5753715A, “2-disubstituted cyclohexenyl and cyclohexyl antimicrobial agents” (Ortho Pharmaceutical Corporation, priority 1995, dated 1998) can be followed below.

SMILES strings stand for the structures.

The assay deals with T1, Kinase A and SpoOF (Bacillus subtilis, UniProt P16497).
T1 sequence (P16497 1-606): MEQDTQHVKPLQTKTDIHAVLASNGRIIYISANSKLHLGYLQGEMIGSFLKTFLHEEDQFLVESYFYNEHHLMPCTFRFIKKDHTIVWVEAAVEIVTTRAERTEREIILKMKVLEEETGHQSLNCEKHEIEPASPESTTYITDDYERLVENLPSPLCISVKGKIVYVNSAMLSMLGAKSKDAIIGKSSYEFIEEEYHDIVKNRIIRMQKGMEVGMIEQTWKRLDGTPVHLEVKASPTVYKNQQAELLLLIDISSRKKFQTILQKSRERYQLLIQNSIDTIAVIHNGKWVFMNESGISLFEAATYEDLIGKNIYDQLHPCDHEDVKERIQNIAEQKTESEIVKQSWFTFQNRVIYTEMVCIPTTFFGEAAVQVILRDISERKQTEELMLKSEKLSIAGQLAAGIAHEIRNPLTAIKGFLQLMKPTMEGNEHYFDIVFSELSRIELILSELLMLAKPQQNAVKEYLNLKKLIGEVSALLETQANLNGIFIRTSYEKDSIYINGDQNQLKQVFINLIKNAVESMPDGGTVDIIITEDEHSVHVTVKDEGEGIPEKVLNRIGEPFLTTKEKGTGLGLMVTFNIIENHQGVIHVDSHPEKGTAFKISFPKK
Nature of the assay: Autophosphorylation of Kinase A and Transphosphorylation of SPoOF Assay. The format is biochemical. Particulars: inhibition of Kinase A autophosphorylation / SpoOF transphosphorylation, [32P]ATP, gel, phosphoimager.
What is called IC50 is the midpoint of a concentration-inhibition curve. Read a high IC50 as lower potency. Consider `C1=CC(CCOc2ccc(CCNCCN3CCCC3)cc2)(Cc2ccccc2)CCC1` (stereo not shown) [Compound 1], for which the “IC50” value is on record as 210 mM and the “IC min” value is 62.5 mM.
In the case of `NCc1ccc(OCCC2(Cc3cccc(Cl)c3)C=CCCC2)cc1` (stereo not shown) [Compound 5], the “IC50” value is 18.5 mM and the “IC min” value was determined as 15.6 mM.
As to `N=C(N)NCc1ccc(OCCC2(Cc3cccc(Cl)c3)C=CCCC2)cc1` (stereo not shown) [Compound 6], the “IC50” value is 35.8 mM.
Turning to `NC(=O)c1ccc(OCCC2(Cc3cccc(Cl)c3)C=CCCC2)cc1` (stereo not shown) [Compound 7], the “IC50” value is given as 330 mM.
The same measure, in the same setting: then `CNCCCc1cnc(SCCC2(Cc3ccccc3)C=CCCC2)nc1` (stereo not shown) [Compound 8], with 92.3 mM.
Consider `COc1cc(CN)ccc1OCCC1(Cc2ccccc2)C=CCCC1` (stereo not shown) [Compound 9], for which the “IC50” value was 446 mM and the “IC min” value is given as 250 mM.
Take `CCNCCc1ccc(NCCC2(Cc3ccccc3)C=CCCC2)cc1` (stereo not shown) [Compound 10]: the “IC50” value worked out at 257 mM and the “IC min” value stood at 125 mM.
Turning to `NCCCCc1ccc(OCCC2(Cc3ccccc3)C=CCCC2)cc1` (stereo not shown) [Compound 11], the “IC50” value came to 353 mM and the “IC min” value was determined as 125 mM.
In the case of `O=C(O)CCc1ccc(OCCC2(c3ccc(F)cc3)C=CCCC2)cc1` (stereo not shown) [Compound 12], the “IC50” value turned out to be 354 mM and the “IC min” value is 125 mM.
The like results for `NCCc1ccc(OCCC2(Cc3ccccc3)CCCCC2)cc1` [Compound 13] were, in that order, 39.5 mM and 7.8 mM.
With `CC(C)NCCc1ccc(OCCC2(CCCc3ccccc3)CCCCC2)cc1` [Compound 14], the “IC min” value was 500 mM.
For the compound `CNCCCc1ccc(OCCC2(CCO)C=CCCC2)cc1` (stereo not shown) [Compound 15], the “IC50” value was found to be 432 mM and the “IC min” value is recorded as 125 mM.
`NCCc1ccc(OCCC2(Cc3ccc([N+](=O)[O-])cc3)CCCCC2)cc1` [Compound 16]: the “IC50” value came to 43.5 mM and the “IC min” value came out at 15.6 mM.
As to `NCCCc1ccc(OCCC2(Cc3ccccc3)C=CCCC2)cc1` (stereo not shown) [Compound 18], the “IC50” value was found to be 261 mM and the “IC min” value was found to be 125 mM.
Consider `CNCCCc1ccc(OCCC2(Cc3ccccc3)C=CCCC2)cc1` (stereo not shown) [Compound 19], for which the “IC50” value amounted to 82.1 mM and the “IC min” value is listed as 62.5 mM.
Regarding `CN(C)CCCc1ccc(OCCC2(Cc3ccccc3)C=CCCC2)cc1` (stereo not shown) [Compound 20], the “IC50” value stood at 122 mM.
Consider `C1=CC(CCOc2ccc(CCCNCCN3CCOCC3)cc2)(Cc2ccccc2)CCC1` (stereo not shown) [Compound 21], for which the “IC50” value was 728 mM and the “IC min” value is 500 mM.
For the compound `CC(C)C1(CCOc2ccc(CCN)cc2)C=CCCC1` (stereo not shown) [Compound 22], the “IC50” value worked out at 94.7 mM and the “IC min” value was 31.25 mM.
The like results for `CC(C)C1(CCOc2ccc(CCNCCN3CCCC3)cc2)C=CCCC1` (stereo not shown) [Compound 23] were, in that order, 295 mM and 125 mM.
Consider `OCCNCCCc1ccc(OCCC2(c3ccc(F)cc3)C=CCCC2)cc1` (stereo not shown) [Compound 25], for which the “IC50” value is 200 mM and the “IC min” value worked out at 125 mM.
Consider `CCCCNCCCc1ccc(OCCC2(c3ccc(F)cc3)C=CCCC2)cc1` (stereo not shown) [Compound 26], for which the “IC50” value is listed as 437 mM and the “IC min” value is 250 mM.
`CCCNCCCc1ccc(OCCC2(c3ccc(F)cc3)C=CCCC2)cc1` (stereo not shown) [Compound 27]: the “IC50” value amounted to 318 mM and the “IC min” value came out at 125 mM.
On to `Fc1ccc(C2(CCOc3ccc(CCCNCc4ccccc4)cc3)C=CCCC2)cc1` (stereo not shown) [Compound 28], for which the “IC min” value is given as greater than 1000 mM.
`CNCCc1ccc(OCCCC2(Cc3ccccc3)C=CCCC2)cc1` (stereo not shown) [Compound 30]: the “IC50” value was found to be 145 mM and the “IC min” value was 125 mM.
On to `CNCCCc1ccc(OCCC2(CCCc3ccccc3)C=CCCC2)cc1` (stereo not shown) [Compound 31], for which the “IC50” value is on record as 91 mM and the “IC min” value is 62.5 mM.
In the same order, the values of `CCCCC1(CCOc2ccc(CCCNC)cc2)C=CCCC1` (stereo not shown) [Compound 32] are 164 mM and 125 mM.
In the same order, the values of `NCCc1ccc(OCCC2(Cc3ccc(Cl)cc3)C=CCCC2)cc1` (stereo not shown) [Compound 33] are 339.5 mM and 125 mM.
The like results for `CNCCCc1ccc(OCCC2(C(C)C)C=CCCC2)cc1` (stereo not shown) [Compound 35] were, in that order, 468.4 mM and 125 mM.
For `CNCCc1ccccc1OCCC1(Cc2ccccc2)C=CCCC1` (stereo not shown) [Compound 36], the “IC min” value stood at 500 mM.
Regarding `CNCCc1cccc(OCCC2(Cc3ccccc3)C=CCCC2)c1` (stereo not shown) [Compound 37], the “IC50” value is 107.7 mM and the “IC min” value came out at 62.5 mM.
For `N=C(N)NCCCc1ccc(OCCC2(Cc3ccccc3)C=CCCC2)cc1` (stereo not shown) [Compound 38], the “IC50” value came to 164.1 mM and the “IC min” value was 125 mM.
In the case of `NCCc1ccc(OCCC2(Cc3cccc(Cl)c3)C=CCCC2)cc1` (stereo not shown) [Compound 39], the “IC50” value stood at 61.5 mM and the “IC min” value worked out at 31.25 mM.
The like results for `Clc1cccc(CC2(CCOc3ccc(CCNCCN4CCCC4)cc3)C=CCCC2)c1` (stereo not shown) [Compound 40] were, in that order, 46.8 mM and 31.25 mM.
With `CNCCCc1ccc(OCCC2(Cc3ccc(OC)cc3)C=CCCC2)cc1` (stereo not shown) [Compound 42], the “IC50” value is on record as 139 mM and the “IC min” value is recorded as 62.5 mM.
For `COc1ccc(CC2(CCOc3ccc(CCCN)cc3)C=CCCC2)cc1` (stereo not shown) [Compound 43], the “IC50” value stood at 210 mM and the “IC min” value was 125 mM.
In the case of `COc1ccc(CC2(CCOc3ccc(CCCNCCN4CCCC4)cc3)C=CCCC2)cc1` (stereo not shown) [Compound 44], the “IC50” value is 133 mM and the “IC min” value was found to be 62.5 mM.
For `N=C(N)NCCc1ccc(OCCC2(Cc3cccc(Cl)c3)C=CCCC2)cc1` (stereo not shown) [Compound 45], the “IC50” value was found to be 17.9 mM and the “IC min” value was 15.6 mM.
As to `COc1ccc(CC2(CCOc3ccc(CCNC(=N)N)cc3)C=CCCC2)cc1` (stereo not shown) [Compound 47], the “IC50” value is reported as 21 mM and the “IC min” value was 15.6 mM.
`CNCCCc1cnc(NCCC2(Cc3ccccc3)C=CCCC2)nc1` (stereo not shown) [Compound 48]: the “IC min” value came out at 500 mM.
The same measure, in the same setting: then `COc1ccc(CC2(CCOc3ccc(C(N)=O)cc3)C=CCCC2)cc1` (stereo not shown) [Compound 51], with greater than 1000 mM.
Take `NCCCc1ccc(OCCC2(Cc3ccc(Cl)cc3)C=CCCC2)cc1` (stereo not shown) [Compound 52]: the “IC50” value is 174 mM.
Take `COc1ccc(CC2(CCOc3ccccc3CN)C=CCCC2)cc1` (stereo not shown) [Compound 54]: the “IC50” value amounted to 122 mM.
Still for that read-out and setting: the value for `NCc1ccccc1OCCC1(Cc2ccccc2Cl)C=CCCC1` (stereo not shown) [Compound 55] was 91.3 mM.
As for `COc1ccc(CC2(CCOc3cccc(CNC(=N)N)c3)C=CCCC2)cc1` (stereo not shown) [Compound 56], the “IC50” value was determined as 66.6 mM.
As for `COc1ccc(CC2(CCOc3ccc(CNC(=N)N)cc3)C=CCCC2)cc1` (stereo not shown) [Compound 57], the “IC50” value was found to be 46.6 mM.
On the same count and under the same terms, the value for `NCc1cccc(OCCC2(Cc3cc(Cl)cc(Cl)c3)C=CCCC2)c1` (stereo not shown) [Compound 58] was 74.8 mM.
With `NCCNCCc1ccc(OCCC2(Cc3cccc(Cl)c3)C=CCCC2)cc1` (stereo not shown) [Compound 61], the “IC50” value is given as 94.6 mM and the “IC min” value is on record as 62.5 mM.
